Test results from patent US8895585B2, “Nicotinamide derivative or salt thereof” (FUJIFILM Corporation, priority 2010, dated 2014).

Each compound was assayed against T1, glutathione S-transferase (GST)-fused full-length human Syk protein (Homo sapiens, UniProt P43405) (assay: Syk enzyme assay). Settings: Syk enzyme assay, Test Example 1; read-out: IC50 of Syk-inhibitory activity.
T1 construct: (GST)-fused full-length human Syk protein; GST (glutathione S-transferase); purchased Carna Biosciences
Assay type: biochemical
In short: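 GST-tagged full-length human Syk (baculovirus) preincubated with compound 15 min at room temperature (pH 7.0, 10 mM MgCl2), then reacted 40 min with 0.4 μM biotinylated peptide substrate and 27 μM ATP (final). Phosphorylation read by HTRF (615/665 nm) after EDTA stop; IC50 reported.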

`NC(=O)c1cc(F)c(N[C@@H]2CCCC[C@@H]2N)nc1Nc1cc(-n2nccn2)nc2[nH]ccc12` (relative stereo) [Example 004-067, 2-((6-(2H-1,2,3-triazol-2-yl)-1H-pyrrolo[2,3-b]pyridin-4-yl)amino)-6-(cis-2-aminocyclohexylamino)-5-fluoronicotinamide] and `NC(=O)c1cc(F)c(N[C@@H]2CCCC[C@@H]2N)nc1Nc1cc(N2CCOCC2)nc2[nH]ccc12` (relative stereo) [Example 004-066, 6-(cis-2-aminocyclohexylamino)-5-fluoro-2-((6-morpholino-1H-pyrrolo[2,3-b]pyridin-4-yl)-amino)nicotinamide] cannot be ordered by IC50: < 10 nM for the first, < 10 nM for the second.

Compared with `NCC1(Nc2nc(Nc3ccc4ncccc4c3)c(C(N)=O)cc2F)CC1` [Example 006-171, 6-((1-(aminomethyl)cyclopropyl)amino)-5-fluoro-2-((quinolin-6-yl)amino)nicotinamide], `CCC(N)CNc1nc(Nc2ccc3ncccc3c2)c(C(N)=O)cc1F` (stereo not drawn) [Example 014-004] is higher in IC50: < 10 nM for the first, 10 to 50 nM for the second.

First: NC(=O)c1cc(F)c(N[C@@H]2CCCC[C@@H]2N)nc1Nc1cnc(N2CCOCC2)c(-n2nccn2)c1 [Example 006-533, 6-(((1R,2S)-2-aminocyclohexyl)amino)-5-fluoro-2-((6-morpholino-5-(2H-1,2,3-triazol-2-yl)pyridin-3-yl)amino)nicotinamide]
Second: NC(=O)c1cc(F)c(NC2CCCCC2N)nc1Nc1ccc(-n2nccn2)nc1 (stereo not drawn) [Example 002-161]
The IC50 of the first is lower: 10 to 50 nM for the first, 50 to 100 nM for the second. The first is the more potent here.

First: NC(=O)c1cc(F)c(N[C@H](Cc2ccccc2)C(N)=O)nc1Nc1ccnc2[nH]ccc12 [Example 004-063]
Second: CCC[C@@H](Nc1nc(Nc2cccc3cccnc23)c(C(N)=O)cc1F)[C@H](C)N [Example 006-243, 6-(((2S,3R)-2-aminohexan-3-yl)amino)-5-fluoro-2-((quinolin-8-yl)amino)nicotinamide]
The IC50 of the first is lower: < 10 nM for the first, 10 to 50 nM for the second.

Compared with `CCC[C@@H](Nc1nc(Nc2ccc3c(cnn3CC)c2)c(C(N)=O)cc1F)[C@@H](N)CC` [Example 006-399, 6-(((3S,4R)-3-aminoheptan-4-yl)amino)-2-((1-ethyl-1H-indazol-5-yl)amino)-5-fluoronicotinamide], `CC[C@H](N)[C@@H](CC)Nc1nc(Nc2cncc(F)c2)c(C(N)=O)cc1F` [Example 006-382, 6-(((3R,4S)-4-aminohexan-3-yl)amino)-5-fluoro-2-((5-fluoropyridin-3-yl)amino)nicotinamide] is higher in IC50: < 10 nM for the first, 10 to 50 nM for the second. The first is the more potent here.

Compared with `Cc1cc(Nc2nc(NC3CCCCC3N)c(F)cc2C(N)=O)cc(C)n1` (stereo not drawn) [Example 002-022], `CCc1ncc(Nc2nc(N[C@@H]3CCCC[C@@H]3N)c(F)cc2C(N)=O)cc1Cl` [Example 006-568, 6-(((1R,2S)-2-aminocyclohexyl)amino)-2-((5-chloro-6-ethylpyridin-3-yl)amino)-5-fluoronicotinamide] is higher in IC50: 10 to 50 nM for the first, 50 to 100 nM for the second. The first is the more potent here.

First: NC(=O)c1cc(F)c(N[C@@H]2CCCC[C@@H]2N)nc1Nc1cncc(-c2cccc(OCCN3CCOCC3)c2)c1 (relative stereo) [Example 004-110, 6-(cis-2-aminocyclohexylamino)-5-fluoro-2-((5-(3-(2-morpholinoethoxy)phenyl)pyridin-3-yl)amino)nicotinamide]
Second: NC(=O)c1cc(F)c(N[C@@H]2CCCC[C@@H]2N)nc1Nc1cncc(-c2cccc(N3CCCC3=O)c2)c1 (relative stereo) [Example 004-225, 6-(cis-2-aminocyclohexylamino)-5-fluoro-2-((5-(3-(2-oxopyrrolidin-1-yl)phenyl)pyridin-3-yl)amino)nicotinamide]
The IC50 of the first is lower: < 10 nM for the first, 10 to 50 nM for the second. The first is the more potent here.

First: CN(C)C(=O)c1cncc(Nc2nc(N[C@@H]3CCCC[C@@H]3N)c(F)cc2C(N)=O)c1 [Example 004-015]
Second: CN1CCN(c2cncc(Nc3nc(N[C@@H]4CCCC[C@@H]4N)c(F)cc3C(N)=O)c2)CC1 (relative stereo) [Example 004-052]
The IC50 of the first is higher: 100 to 1000 nM for the first, 10 to 50 nM for the second.

`CC(=O)Nc1cccc(-c2cncc(Nc3nc(N[C@@H]4CCCC[C@@H]4N)c(F)cc3C(N)=O)c2)c1` [Example 004-223] and `COc1cc(-c2cncc(Nc3nc(N[C@@H]4CCCC[C@@H]4N)c(F)cc3C(N)=O)c2)ccn1` (relative stereo) [Example 004-232, 6-((cis-2-aminocyclohexyl)amino)-5-fluoro-2-((2′-methoxy-[3,4′-bipyridine]-5-yl)amino)nicotinamide] cannot be ordered by IC50: < 10 nM for the first, < 10 nM for the second.

`CN1CCc2ccc(Nc3nc(N[C@@H]4CCCC[C@@H]4N)c(F)cc3C(N)=O)cc2C1` (relative stereo) [Example 006-077, 6-(cis-2-aminocyclohexylamino)-5-fluoro-2-((2-methyl-1,2,3,4-tetrahydroisoquinolin-7-yl)amino)nicotinamide] and `NC(=O)c1cc(F)c(NC2CCCCC2N)nc1Nc1ccc2cc(Cl)cnc2c1` (stereo not drawn) [Example 002-087] fall in the same range of IC50: 10 to 50 nM for the first, 10 to 50 nM for the second.

First: COCCOc1nccc2c(Nc3nc(NC4CCCCC4N)c(F)cc3C(N)=O)cccc12 (stereo not drawn) [Example 002-102]
Second: COCC(C)Oc1nccc2c(Nc3nc(N[C@@H]4CCCC[C@@H]4N)c(F)cc3C(N)=O)cccc12 (relative stereo) [Example 004-156, 6-(cis-2-aminocyclohexylamino)-5-fluoro-2-((1-((1-methoxypropan-2-yl)oxy)isoquinolin-5-yl)amino)nicotinamide]
The IC50 of the first is higher: 10 to 50 nM for the first, < 10 nM for the second.

`NC(=O)c1cc(F)c(N[C@@H]2CCCC[C@@H]2N)nc1Nc1ccc(Nc2ccccc2)nc1` (relative stereo) [Example 006-164, 6-((cis-2-aminocyclohexyl)amino)-5-fluoro-2-((6-(phenylamino)pyridin-3-yl)amino)nicotinamide] and `NC(=O)c1cc(F)c(NC2CCCCC2N)nc1Nc1cncc(NC(=O)c2ccccc2Cl)c1` (stereo not drawn) [Example 027-007] fall in the same range of IC50: 10 to 50 nM for the first, 10 to 50 nM for the second.

`CNc1nc(Nc2cc(OC)cc(OC)c2)c(C(N)=O)cc1F` [Example 022-008] and `COc1cc(Nc2nc(NCc3ccccc3N)c(F)cc2C(N)=O)cc(OC)c1` [Example 016-014] fall in the same range of IC50: 100 to 1000 nM for the first, 100 to 1000 nM for the second.

First: CC(C)Oc1nccc2cc(Nc3nc(N[C@@H]4CCCC[C@@H]4N)c(F)cc3C(N)=O)ccc12 (relative stereo) [Example 004-166, 6-(cis-2-aminocyclohexylamino)-5-fluoro-2-((1-isopropoxyisoquinolin-6-yl)amino)-nicotinamide]
Second: COc1ccccc1-c1cc(Nc2nc(NC3CCCCC3N)c(F)cc2C(N)=O)ccn1 (stereo not drawn) [Example 002-132]
The IC50 of the first is lower: < 10 nM for the first, 10 to 50 nM for the second. The first is the more potent here.

`NC(=O)c1cc(F)c(N[C@@H]2CCCC[C@@H]2N)nc1Nc1ccc2[nH]c(C(=O)NCCN3CCOCC3)cc2c1` (relative stereo) [Example 029-019, 5-((6-(cis-2-aminocyclohexylamino)-3-carbamoyl-5-fluoropyridin-2-yl)amino)-N-(2-morpholinoethyl)-1H-indole-2-carboxamide] and `CNc1cc(Nc2nc(N[C@@H]3CCCC[C@@H]3N)c(F)cc2C(N)=O)cc2cccnc12` (relative stereo) [Example 004-136, 6-(cis-2-aminocyclohexylamino)-5-fluoro-2-((8-(methylamino)quinolin-6-yl)amino)-nicotinamide] cannot be ordered by IC50: < 10 nM for the first, < 10 nM for the second.

First: NC(=O)c1cc(F)c(NC2CCCCC2N)nc1Nc1ccnc(C(F)(F)F)c1 (stereo not drawn) [Example 002-050]
Second: NC(=O)c1cc(F)c(NC2CCCCC2N)nc1Nc1ccnc(-c2ccc[nH]2)c1 (stereo not drawn) [Example 002-051]
The IC50 of the first is higher: 10 to 50 nM for the first, < 10 nM for the second.

`COCCOc1ccc2ccc(Nc3nc(NC4CCCCC4N)c(F)cc3C(N)=O)cc2n1` (stereo not drawn) [Example 002-090] and `CNc1cccc2cc(Nc3nc(N[C@@H]4CCCC[C@@H]4N)c(F)cc3C(N)=O)cnc12` (relative stereo) [Example 004-116, 6-(cis-2-aminocyclohexylamino)-5-fluoro-2-((8-(methylamino)quinolin-3-yl)amino)-nicotinamide] cannot be ordered by IC50: < 10 nM for the first, < 10 nM for the second.

First: NC(=O)c1cc(F)c(N[C@@H]2CCCC[C@@H]2N)nc1Nc1cncc(COCc2ccccc2)c1 (relative stereo) [Example 004-189, 6-(cis-2-aminocyclohexylamino)-2-((5-((benzyloxy)methyl)pyridin-3-yl)amino)-5-fluoronicotinamide]
Second: Cc1cncc(Nc2nc(NC[C@@H](N)c3ccccc3)c(F)cc2C(N)=O)c1 [Example 006-118, (S)-6-((2-amino-2-phenylethyl)amino)-5-fluoro-2-((5-methylpyridin-3-yl)amino)nicotinamide]
The IC50 of the first is lower: 50 to 100 nM for the first, 100 to 1000 nM for the second. The first is the more potent here.

Compared with `COc1ccc(F)c(-c2cncc(Nc3nc(N[C@@H](CN)CC(C)C)c(F)cc3C(N)=O)c2)c1` [Example 006-320, (R)-6-((1-amino-4-methylpentan-2-yl)amino)-5-fluoro-2-((5-(2-fluoro-5-methoxyphenyl)pyridin-3-yl)amino)nicotinamide], `CC(C)C[C@@H](Nc1nc(Nc2ccc3ncccc3c2)c(C(N)=O)cc1F)c1nnn[nH]1` [Example 012-026] is higher in IC50: 50 to 100 nM for the first, 100 to 1000 nM for the second.

Compared with `CCn1nc(F)c2ccc(Nc3nc(N[C@H](CC4CC4)[C@H](C)N)c(F)cc3C(N)=O)cc21` [Example 006-441, 6-(((2R,3S)-3-amino-1-cyclopropylbutan-2-yl)amino)-2-((1-ethyl-3-fluoro-1H-indazol-6-yl)amino)-5-fluoronicotinamide], `Cc1cc(Nc2nc(N[C@H](CCCN)[C@H](C)N)c(F)cc2C(N)=O)cnc1C` [Example 045-000] is higher in IC50: 10 to 50 nM for the first, 100 to 1000 nM for the second.

Same assay, conditions: read-out: Syk-inhibitory activity (IC50)

`CCNc1nc(Nc2cnc3ccccc3c2)c(C(N)=O)cc1F` [Example 6-20, 6-(ethylamino)-5-fluoro-2-(quinolin-3-ylamino)nicotinamide] and `NC(=O)c1cc(F)c(Nc2cccnc2)nc1Nc1cnc2ccccc2c1` [Example 24, 5-fluoro-6-(pyridin-3-ylamino)-2-(quinolin-3-ylamino)nicotinamide] cannot be ordered by IC50: ≤ 1000 nM for the first, ≤ 1000 nM for the second.
